US5637731A (priority 1996, dated 1997)

Tested on: peripheral acetylcholine-like effects
Assay: Side effect profile: in vivo overt effects (salivation, tremor, diarrhea) after oral administration
Parameters: species or system rat
Conditions: (rat) po
Source text: The use of the radioligand binding assays (^3 H-QNB and ^3 H-CD) to characterize the hydroxylated oxotremorine derivatives provides a useful first approximation for,the evaluation of the muscarinic agonist-like profile of a test compound. However, in using a prodrug methodology, intrinsic activity will not be observed until in vivo hydrolysis or metabolism to the active compound occurs. Therefore, radioligand binding data, performed on the carbonyl derivatives, will not provide leading information. As a result, the observed overt effects after oral administration to rats of the test carbonyl derivative, relative to its corresponding hydroxylated oxotremorine compound, became the primary in vivo pharmacological measure. These in vivo overt effects are attributed to the peripheral acetylcholine-like effects of the compound, such as salivation, tremor and diarrhea. The in vivo overt effects also providing dosing information for the behavioral tests of cognitive improvement.

Row | SMILES | Side Effect Profile minimum effective dose (MED)
1 | CCCCCCOC(=O)O[C@@H]1CCN(CC#CCN2CCCC2)C1=O [(R)-2-Oxo-1-[4-(1-pyrrolidinyl)-2-butynyl]-3-pyrrolidinyl carbonic acid hexyl ester] | 7 μ mol/kg
2 | CCCC(=O)O[C@@H]1CCN(CC#CCN(C)C)C1=O [(R)-Butanoic acid 1-[4-(dimethylamino)-2-butynyl]-2-oxo-3-pyrrolidinyl ester] | 127 μ mol/kg
3 | CCCC(=O)O[C@@H]1CCN(CC#CCN2CCCC2)C1=O [(R)-Butanoic acid 2-oxo-1-[4-(1-pyrrolidinyl)-2-butynyl]-3-pyrrolidinyl ester] | 7.2 μ mol/kg
4 | CCCCNC(=O)O[C@@H]1CCN(CC#CCN(C)C)C1=O [(R)-Butylcarbamic acid 1-[4-(dimethylamino)-2-butynyl]-2-oxo-3-pyrrolidinyl ester] | > 340 μ mol/kg
5 | CCCCNC(=O)O[C@@H]1CCN(CC#CCN2CCCC2)C1=O [(R)-Butylcarbamic acid 2-oxo-1-[4-(1-pyrrolidinyl)-2-butynyl]-3-pyrrolidinyl ester] | > 243 μ mol/kg
6 | CCNC(=O)O[C@@H]1CCN(CC#CCN(C)C)C1=O [(R)-Ethylcarbamic acid 1-[4-(dimethylamino)-2-butynyl]-2-oxo-3-pyrrolidinyl ester] | > 510 μ mol/kg
7 | CCNC(=O)O[C@@H]1CCN(CC#CCN2CCCC2)C1=O [(R)-Ethylcarbamic acid 2-oxo-1-[4-(1-pyrrolidinyl)-2-butynyl]-3-pyrrolidinyl ester] | 28 μ mol/kg
8 | CCCCCC(=O)O[C@@H]1CCN(CC#CCN(C)C)C1=O [(R)-Hexanoic acid 1-[4-(dimethylamino)-2-butynyl]-2-oxo-3-pyrrolidinyl ester] | 255 μ mol/kg
9 | CCCCCC(=O)O[C@@H]1CCN(CC#CCN2CCCC2)C1=O [(R)-Hexanoic acid 2-oxo-1-[4-(1-pyrrolidinyl)-2-butynyl]-3-pyrrolidinyl ester] | 7.0 μ mol/kg
10 | CCCCCCNC(=O)O[C@@H]1CCN(CC#CCN(C)C)C1=O [(R)-Hexylcarbamic acid 1-[4-(dimethylamino)-2-butynyl]-2-oxo-3-pyrrolidinyl ester] | > 530 μ mol/kg
11 | CCCCCCNC(=O)O[C@@H]1CCN(CC#CCN2CCCC2)C1=O [(R)-Hexylcarbamic acid 2-oxo-1-[4-(1-pyrrolidinyl)-2-butynyl]-3-pyrrolidinyl ester] | > 450 μ mol/kg
12 | CCCCCCCC(=O)O[C@@H]1CCN(CC#CCN(C)C)C1=O [(R)-Octanoic acid 1-[4-(dimethylamino)-2-butynyl]-2-oxo-3-pyrrolidinyl ester] | 508 μ mol/kg
13 | CCCCCCCC(=O)O[C@@H]1CCN(CC#CCN2CCCC2)C1=O [(R)-Octanoic acid 2-oxo-1-[4-(1-pyrrolidinyl)-2-butynyl]-3-pyrrolidinyl ester] | 14 μ mol/kg
14 | CCOC(=O)O[C@H]1CCN(CC#CCN(C)C)C1=O [(S)-1-[4-(Dimethylamino)-2-butynyl]-2-oxo-3-pyrrolidinyl carbonic acid ethyl ester] | 2.2 μ mol/kg
15 | CCCCOC(=O)O[C@H]1CCN(CC#CCN2CCCC2)C1=O [(S)-2-Oxo-1-[4-(1-pyrrolidinyl)-2-butynyl]-3-pyrrolidinyl carbonic acid butyl ester] | 0.9 μ mol/kg
16 | CCOC(=O)O[C@H]1CCN(CC#CCN2CCCC2)C1=O [(S)-2-Oxo-1-[4-(1-pyrrolidinyl)-2-butynyl]-3-pyrrolidinyl carbonic acid ethyl ester] | 1.7 μ mol/kg

Row | SMILES | Side Effect Profile minimum effective dose (MED)
17 | CCCCCCCCOC(=O)O[C@H]1CCN(CC#CCN2CCCC2)C1=O [(S)-2-Oxo-1-[4-(1-pyrrolidinyl)-2-butynyl]-3-pyrrolidinyl carbonic acid octyl ester] | 28 μ mol/kg
18 | CCCC(=O)O[C@H]1CCN(CC#CCN(C)C)C1=O [(S)-Butanoic acid 1-[4-(dimethylamino)-2-butynyl]-2-oxo-3-pyrrolidinyl ester] | 8.0 μ mol/kg
19 | CCCC(=O)O[C@H]1CCN(CC#CCN2CCCC2)C1=O [(S)-Butanoic acid 2-oxo-1-[4-(1-pyrrolidinyl)-2-butynyl]-3-pyrrolidinyl ester] | 1.7 μ mol/kg
20 | CCCCNC(=O)O[C@H]1CCN(CC#CCN2CCCC2)C1=O [(S)-Butylcarbamic acid 1-2-oxo-[4-(1-pyrrolidinyl)-2-butynyl]-3-pyrrolidinyl ester] | 225 μ mol/kg
21 | CCCCNC(=O)O[C@H]1CCN(CC#CCN(C)C)C1=O [(S)-Butylcarbamic acid 1-[4-(dimethylamino)-2-butynyl]-2-oxo-3-pyrrolidinyl ester] | > 493 μ mol/kg
22 | CCCCCCCCCC(=O)O[C@H]1CCN(CC#CCN2CCCC2)C1=O [(S)-Decanoic acid 2-oxo-1-[4-(1-pyrrolidinyl)-2-butynyl]-3-pyrrolidinyl ester] | 14 μ mol/kg
23 | CCNC(=O)O[C@H]1CCN(CC#CCN(C)C)C1=O [(S)-Ethylcarbamic acid 1-[4-(dimethylamino)-2-butynyl]-2-oxo-3-pyrrolidinyl ester] | > 510 μ mol/kg
24 | CCNC(=O)O[C@H]1CCN(CC#CCN2CCCC2)C1=O [(S)-Ethylcarbamic acid 2-oxo-1-[4-(1-pyrrolidinyl)-2-butynyl]-3-pyrrolidinyl ester] | > 490 μ mol/kg
25 | CCCCCC(=O)O[C@H]1CCN(CC#CCN(C)C)C1=O [(S)-Hexanoic acid 1-[4-(dimethylamino)-2-butynyl]-2-oxo-3-pyrrolidinyl ester] | 5.9 μ mol/kg
26 | CCCCCC(=O)O[C@H]1CCN(CC#CCN2CCCC2)C1=O [(S)-Hexanoic acid 2-oxo-1-[4-(1-pyrrolidinyl)-2-butynyl]-3-pyrrolidinyl ester] | 1.8 μ mol/kg
27 | CCCCCCNC(=O)O[C@H]1CCN(CC#CCN(C)C)C1=O [(S)-Hexylcarbamic acid 1-[4-(dimethylamino)-2-butynyl]-2-oxo-3-pyrrolidinyl ester] | > 510 μ mol/kg
28 | CCCCCCNC(=O)O[C@H]1CCN(CC#CCN2CCCC2)C1=O [(S)-Hexylcarbamic acid 2-oxo-1-[4-(1-pyrrolidinyl)-2-butynyl]-3-pyrrolidinyl ester] | > 450 μ mol/kg
29 | CCCCCCCC(=O)O[C@H]1CCN(CC#CCN(C)C)C1=O [(S)-Octanoic acid 1-[4-(dimethylamino)-2-butynyl]-2-oxo-3-pyrrolidinyl ester] | 8.0 μ mol/kg
30 | CCCCCCCCNC(=O)O[C@H]1CCN(CC#CCN(C)C)C1=O [(S)-Octylcarbamic acid 1-[4-(dimethylamino)-2-butynyl]-2-oxo-3-pyrrolidinyl ester] | > 520 μ mol/kg
31 | CCCCCCCCNC(=O)O[C@H]1CCN(CC#CCN2CCCC2)C1=O [(S)-Octylcarbamic acid 2-oxo-1-[4-(1-pyrrolidinyl)-2-butynyl]-3-pyrrolidinyl ester] | > 450 μ mol/kg

Tested on: SDAT patients
Assay: not given
Conditions: cited from earlier work

Row | SMILES | improvement in SDAT patients compared to physostigmine
32 | COC(=O)C1=CCCN(C)C1 [arecoline] | more consistent improvement when compared to the anticholinergic inhibitor physostigmine

Tested on: not listed separately
Assay: Stability remark in Table V
Type: physicochemical
Conditions: in place of the optical rotation

Row | SMILES | stability (in words)
33 | O=C1[C@@H](O)CCN1CC#CCN1CCC1 [Example 31, (S)-3-Hydroxy-1-[4-(1-azetidinyl)-2-butynyl]-2-pyrrolidinone] | not stable
34 | O=C1[C@H](O)CCN1CC#CCN1CCC1 [Example 33, (R)-3-Hydroxy-1-[4-(1-azetidinyl)-2-butynyl]-2-pyrrolidinone] | not stable
